We go through 48 molecules from patent publication US10093660B2, “Sulfoximine substituted quinazolines for pharmaceutical compositions” (EVOTEC INTERNATIONAL GMBH, priority 2013, dated 2018).

One may read the IC50 as the concentration that gives 50% inhibition.

One test deals with MNK2a (Homo sapiens (Human), UniProt Q9HBH9). Put plainly: MNK2a in vitro kinase assay (Assay 2), ADP-Glo. The class given is biochemical.
Sequence of MNK2a (Q9HBH9 whole entry): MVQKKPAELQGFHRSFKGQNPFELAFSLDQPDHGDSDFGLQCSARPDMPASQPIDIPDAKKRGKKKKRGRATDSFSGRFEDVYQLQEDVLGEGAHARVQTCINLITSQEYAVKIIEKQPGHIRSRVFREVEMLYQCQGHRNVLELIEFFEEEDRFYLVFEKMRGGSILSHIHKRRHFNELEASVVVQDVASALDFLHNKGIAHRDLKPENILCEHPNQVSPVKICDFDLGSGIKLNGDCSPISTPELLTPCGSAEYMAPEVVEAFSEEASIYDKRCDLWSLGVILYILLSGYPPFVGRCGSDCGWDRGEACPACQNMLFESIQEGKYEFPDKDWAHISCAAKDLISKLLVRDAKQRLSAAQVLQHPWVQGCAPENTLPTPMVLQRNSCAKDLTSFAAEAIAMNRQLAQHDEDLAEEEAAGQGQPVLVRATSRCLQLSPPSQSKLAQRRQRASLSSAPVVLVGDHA
Conditions: not given
An excerpt: B. MNK2a In Vitro Kinase Assay (Assay 2)
(In general: ADP-Glo turns the ADP formed in a reaction into a luminescent signal.)
Turning to `CO[C@@H]1COC[C@@H]1Oc1cc(F)ccc1Nc1ncnc2cc(N=S(C)(C)=O)cc(C)c12` (racemic) [Example 2.9], the midpoint of inhibition, the IC50, lay at 4 nM.

Still in this test, the particulars now being: assay 2; read-out: MNK2 IC50.
Regarding `COc1cc(N=S2(=O)CCC(O)CC2)cc2ncnc(Nc3ccc(F)cc3O[C@H]3COC[C@H]3O)c12` (mixture of isomers) [Example 9.25], the half-inhibitory concentration (IC50) was 26 nM.
For `COc1cc(N=S(C)(=O)c2ccncc2)cc2ncnc(Nc3ccc(F)cc3O[C@H]3COC[C@H]3O)c12` (mixture of isomers) [Example 9.27], the IC50 came out at 86 nM.
On the same count and under the same terms, then `CO[C@H]1COC[C@H]1Oc1ncccc1Nc1ncnc2cc(N=S3(=O)CCCC3)cc(C)c12` (racemic) [Example 2.2], with 6 nM; and `Cc1cc(N=S(C)(C)=O)cc2ncnc(Nc3cccnc3O[C@H]3COC[C@H]3OCCF)c12` (racemic) [Example 2.26], with 3 nM; and `O=S1(=Nc2cc(F)c3c(Nc4ccc(F)cc4O[C@@H]4COC[C@@H]4O)ncnc3c2)CCC1` (racemic) [Example 2.87], with 10 nM.
Consider `CS(=O)(=Nc1cc(F)c2c(Nc3ccc(F)cc3O[C@@H]3COC[C@@H]3O)ncnc2c1)c1cccnc1` (mixture of isomers) [Example 2.89], for which the IC50 was found to be 51 nM.
For the molecule `CC(C)S(C)(=O)=Nc1cc(F)c2c(Nc3ccc(F)cc3O[C@@H]3COC[C@@H]3O)ncnc2c1` (mixture of isomers) [Example 2.90], the IC50 is 70 nM.
For the molecule `CS(=O)(=Nc1cc(F)c2c(Nc3ccc(F)cc3O[C@@H]3COC[C@@H]3O)ncnc2c1)C1CC1` (mixture of isomers) [Example 2.91], the IC50 came out at 106 nM.
On the same count and under the same terms, then `O=S1(=Nc2cc(F)c3c(Nc4ccc(F)cc4O[C@@H]4COC[C@@H]4O)ncnc3c2)CCC(O)CC1` (mixture of isomers) [Example 2.94], with 39 nM.
On the same count and under the same terms, then `CS(=O)(=Nc1cc(F)c2c(Nc3ccc(F)cc3O[C@@H]3COC[C@@H]3O)ncnc2c1)c1ccccc1` (mixture of isomers) [Example 2.95], with 54 nM; and `CC1CCS(=O)(=Nc2cc(F)c3c(Nc4ccc(F)cc4O[C@@H]4COC[C@@H]4O)ncnc3c2)C1` (mixture of isomers) [Example 2.96], with 9 nM; and `Cc1cc(N=S(C)(C)=O)cc2ncnc(Nc3ccc(F)cc3O[C@@H]3C[C@@H]4CC[C@H]3O4)c12` (racemic) [Example 2.98], with 6 nM.
Regarding `Cc1cc(N=S(C)(C)=O)cc2ncnc(Nc3ccc(F)cc3O[C@H]3C[C@@H]4CO[C@H]3C4)c12` (racemic) [Example 2.99], the IC50 was found to be 3 nM.
Still for that read-out and setting: then `Cc1cc(N=S(C)(C)=O)cc2ncnc(Nc3ccc(F)cc3O[C@@H]3COC[C@H]3F)c12` (racemic) [Example 2.100], with 25 nM; and `Cc1cc(N=S2(=O)CCCC2)cc2ncnc(Nc3ccc(F)cc3O[C@@H]3COC[C@H]3F)c12` (racemic) [Example 2.101], with 6 nM; and `CS(C)(=O)=Nc1cc(Cl)c2c(Nc3ccc(F)cc3O[C@H]3COC[C@@H]3O)ncnc2c1` [Example 1.8], with 2 nM.
Same read-out and setting: then `CS(C)(=O)=Nc1cc(C2CC2)c2c(Nc3ccc(F)cc3O[C@H]3COC[C@@H]3O)ncnc2c1` [Example 1.10], with 21 nM; and `Cc1cc(N=S2(=O)CCCC2)cc2ncnc(Nc3ccc(F)cc3O[C@H]3CN(C)C[C@@H]3O)c12` [Example 2.61], with 12 nM.
On the same count and under the same terms, then `CS(=O)(=Nc1cc(F)c2c(Nc3ccc(F)cc3O[C@H]3COC[C@@H]3O)ncnc2c1)c1cccnc1` (stereo partly drawn) [Example 2.69], with 22 nM; and `CS(=O)(=Nc1cc(F)c2c(Nc3ccc(F)cc3O[C@H]3COC[C@@H]3O)ncnc2c1)C1CC1` (stereo partly drawn) [Example 2.73], with 20 nM; and `CS(=O)(=Nc1cc(F)c2c(Nc3ccc(F)cc3O[C@H]3COC[C@@H]3O)ncnc2c1)c1ccccc1` (stereo partly drawn) [Example 2.86], with 13 nM.
Consider `CS(=O)(=Nc1cc(F)c2c(Nc3ccc(F)cc3O[C@H]3COC[C@@H]3O)ncnc2c1)C1CCOCC1` (stereo partly drawn) [Example 2.88], for which the half-inhibitory concentration (IC50) was found to be 32 nM.
Still for that read-out and setting: then `CS(=O)(=Nc1cc(F)c2c(Nc3ccc(F)cc3O[C@H]3COC[C@@H]3O)ncnc2c1)c1ccncc1` (stereo partly drawn) [Example 2.97], with 71 nM; and `COc1cc(N=S2(=O)CCC2)cc2ncnc(Nc3ccc(Cl)nc3O[C@H]3COC[C@@H]3O)c12` [Example 9.5], with 1 nM.
For the molecule `COc1cc(N=S(C)(=O)C2CCOCC2)cc2ncnc(Nc3ccc(F)cc3O[C@H]3COC[C@@H]3O)c12` (stereo partly drawn) [Example 9.11], the IC50 worked out at 15 nM.
Turning to `COc1cc(N=S(C)(=O)C2CC2)cc2ncnc(Nc3ccc(F)cc3O[C@H]3COC[C@@H]3O)c12` (stereo partly drawn) [Example 9.22], the IC50 is 18 nM.
The same measure, in the same setting: then `COc1cc(N=S2(=O)CCC(O)CC2)cc2ncnc(Nc3ccc(F)cc3O[C@H]3COC[C@@H]3O)c12` (stereo partly drawn) [Example 9.26], with 7 nM.
For the molecule `COc1cc(N=S(C)(=O)c2ccccc2)cc2ncnc(Nc3ccc(F)cc3O[C@H]3COC[C@@H]3O)c12` (stereo partly drawn) [Example 9.28], the IC50 came to 13 nM.
On the same count and under the same terms, then `COc1cc(N=S(C)(=O)c2ccncc2)cc2ncnc(Nc3ccc(F)cc3O[C@H]3COC[C@@H]3O)c12` (stereo partly drawn) [Example 9.30], with 43 nM; and `Cc1cc(N=S2(=O)CCC2)cc2ncnc(Nc3ccc(F)cc3OC3CCC(O)OC3)c12` (stereo not drawn) [Example 12.1], with 3 nM.
On the same count and under the same terms, then `Cc1cc(N=S(C)(C)=O)cc2ncnc(Nc3ccc(F)cc3OC3CCC(O)OC3)c12` (stereo not drawn) [Example 12.2], with 3 nM.
Same read-out and setting: then `CO[C@H]1COC[C@H]1Oc1cc(F)ccc1Nc1ncnc2cc(N=S(C)(C)=O)cc(C)c12` [Example 14.7], with 7 nM.

The target of a further test is MNK1a (Homo sapiens (Human), UniProt Q9BUB5). The experiment in a line: MNK1 in vitro kinase assay (Assay 3), Z'-LYTE. The class given is biochemical.
Sequence of MNK1a (Q9BUB5 other isoform, or with tags, fused parts or gaps): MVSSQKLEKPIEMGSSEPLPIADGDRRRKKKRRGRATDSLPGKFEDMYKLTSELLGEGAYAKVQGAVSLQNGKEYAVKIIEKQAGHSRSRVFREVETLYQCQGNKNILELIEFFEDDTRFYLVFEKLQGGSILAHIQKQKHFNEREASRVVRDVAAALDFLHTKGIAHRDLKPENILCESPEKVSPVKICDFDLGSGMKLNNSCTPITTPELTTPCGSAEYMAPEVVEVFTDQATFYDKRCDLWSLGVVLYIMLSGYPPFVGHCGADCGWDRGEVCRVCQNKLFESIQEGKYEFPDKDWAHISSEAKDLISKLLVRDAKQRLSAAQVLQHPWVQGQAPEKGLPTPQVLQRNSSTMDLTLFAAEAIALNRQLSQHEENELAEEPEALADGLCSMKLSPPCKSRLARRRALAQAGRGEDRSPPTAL
Conditions: not given
From the text: C. MNK1 In Vitro Kinase Assay (Assay 3)
MNK1 Data can be obtained from the MNK1 Z′-LYTE® assay. The MNK1 Z′-LYTE® screening protocol and assay conditions are also described on www.invitrogen.com.
The assay is described as follows:
The Z′-LYTE® biochemical assay employs a fluorescence-based, coupled-enzyme format and is based on the differential sensitivity of phosphorylated and non-phosphorylated peptides to proteolytic cleavage. The peptide substrate is labeled with two fluorophores—one at each end—that make up a FRET pair.
In the primary reaction, the kinase transfers the gamma-phosphate of ATP to a single tyrosine, serine or threonine residue in a synthetic FRET-peptide. In the secondary reaction, a site-specific protease recognizes and cleaves non-phosphorylated FRET-peptides. Phosphorylation of FRET-peptides suppresses cleavage by the Development Reagent. Cleavage disrupts FRET between the donor (i.e., coumarin) and acceptor (i.e., fluorescein) fluorophores on the FRET-peptide, whereas uncleaved, phosphorylated FRET-peptides maintain FRET. A ratiometric method, which calculates the ratio (the Emission Ratio) of donor emission to acceptor emission after excitation of the donor fluorophore at 400 nm, is used to quantitate reaction progress, as shown in the equation below.
The 2×MKNK1 (MNK1) mixture is prepared in 50 mM HEPES pH 7.5, 0.01% BRIJ-35, 10 mM MgCl2, 4 mM MnCl2, 1 mM EGTA, 2 mM DTT.
The Test Compounds are screened in 1% DMSO (final) in the well.
All Peptide/Kinase Mixtures are diluted to a 2× working concentration in the MNK1 Kinase Buffer.
All ATP Solutions are diluted to a 4× working concentration in Kinase Buffer (50 mM HEPES pH 7.5, 0.01% BRIJ-35, 10 mM MgCl2, 1 mM EGTA).
Development Reagent Solution:
The Development Reagent is diluted in Development Buffer
1. 2.5 μL—4× Test Compound
2. 5 μL—2× Peptide/Kinase Mixture
5. 60-minute Kinase Reaction incubation at room temperature
6. 5 μL—Development Reagent Solution
8. 60-minute Development Reaction incubation at room temperature
9. Read on fluorescence plate reader and analyze the data
Control C0%=Average Coumarin emission signal of the 0% Phos. Control F100%=Average Fluorescein emission signal of the 100% Phos. Control F0%=Average Fluorescein emission signal of the 0% Phos. Control Graphing Software
SelectScreen® Kinase Profiling Service uses XLfit from IDBS. […] The activity of MNK proteins can be assayed also by other in vitro kinase assay formats. […] In general, MNK kinase assays can be performed such that a MNK substrate such as a protein or a peptide, which may or may not include modifications as further described below, or others are phosphorylated by MNK proteins having enzymatic activity in vitro. The activity of a candidate agent can then be determined via its ability to decrease the enzymatic activity of the MNK protein. The kinase activity may be detected by change of the chemical, physical or immunological properties of the substrate due to phosphorylation.
As to `CO[C@@H]1COC[C@@H]1Oc1cc(F)ccc1Nc1ncnc2cc(N=S3(=O)CCCC3)cc(Cl)c12` (racemic) [Example 1.6], the midpoint of inhibition, the IC50, lay at 45 nM.

The same test, now with this note: compound concentration of 1 μM, read-out: MNK1 % INH.
Consider `CO[C@H]1COC[C@H]1Oc1ncccc1Nc1ncnc2cc(N=S(C)(C)=O)cc(C)c12` (racemic) [Example 2.1], for which the inhibition at 1 µM turned out to be 88%.
Same read-out and setting: then `Cc1cc(N=S2(=O)CCCC2)cc2ncnc(Nc3cccnc3O[C@@H]3COC[C@@H]3O)c12` (racemic) [Example 2.3], with 102%.
Same read-out and setting: then `Cc1cc(N=S(C)(C)=O)cc2ncnc(Nc3ccc(F)cc3O[C@H]3COC[C@H]3O)c12` (racemic) [Example 2.7], with 97%; and `O=S1(=Nc2cc(F)c3c(Nc4cccnc4O[C@H]4COC[C@H]4O)ncnc3c2)CCCC1` (racemic) [Example 2.30], with 97%; and `Cc1cc(N=S2(=O)CCCCC2)cc2ncnc(Nc3cccnc3O[C@H]3COC[C@H]3O)c12` (racemic) [Example 2.31], with 94%.
Turning to `Cc1cc(N=S2(=O)CCC2)cc2ncnc(Nc3cccnc3O[C@H]3COC[C@H]3O)c12` (racemic) [Example 2.32], the inhibition at 1 µM turned out to be 97%.
In the case of `O=S1(=Nc2cc(F)c3c(Nc4cccnc4O[C@H]4COC[C@H]4O)ncnc3c2)CCC1` (racemic) [Example 2.33], the inhibition at 1 µM was 91%.
Consider `CO[C@@H]1COC[C@H]1Oc1ncccc1Nc1ncnc2cc(N=S(C)(C)=O)cc(C)c12` (racemic) [Example 2.34], for which the inhibition at 1 µM is 70%.
Consider `CO[C@@H]1COC[C@H]1Oc1ncccc1Nc1ncnc2cc(N=S3(=O)CCC3)cc(C)c12` (racemic) [Example 2.35], for which the inhibition at 1 µM stood at 97%.
Consider `CO[C@@H]1CC[C@@H](Oc2cc(F)ccc2Nc2ncnc3cc(N=S(C)(C)=O)cc(C)c23)CO1` (racemic) [Example 2.63], for which the inhibition at 1 µM stood at 102%.
Regarding `Cc1cc(N=S2(=O)CCC2)cc2ncnc(Nc3ccc(F)cc3O[C@@H]3COC[C@@H]3O)c12` (racemic) [Example 2.67], the inhibition at 1 µM turned out to be 100%.
Same read-out and setting: then `Cc1cc(N=S(C)(=O)C2CC2)cc2ncnc(Nc3ccc(F)cc3O[C@@H]3COC[C@@H]3O)c12` (mixture of isomers) [Example 2.72], with 98%.
For the molecule `Cc1cc(N=S2(=O)CCC2)cc2ncnc(Nc3ccc(F)cc3O[C@@H]3COC[C@@H]3O)c12` (single isomer, unassigned) [Example 1.36], the inhibition at 1 µM turned out to be 98%.
Same read-out and setting: then `Cc1cc(N=S2(=O)CCC2)cc2ncnc(Nc3ccc(F)cc3O[C@H]3COC[C@H]3O)c12` (single isomer, unassigned) [Example 1.37], with 97%.
